# Laboratory results from US10705094B2, “TNF receptor signaling modulator assay” (UCB Biopharma SRL, priority 2015, dated 2020).
# Columns and labels:
# [1] = system: hTNFα-induced neutrophil recruitment; test: Neutrophil recruitment in mice, compound pre-mixed with hTNFα and injected i.p.; type: in vivo, Balb/c mice; conditions: for effect of compound alone on neutrophil recruitment: compound only mice, no TNFα; for neutrophil recruitment versus TNFα in the absence of the compound: sample 1, ratio compound:TNFα 0.1:1, i.p.; for neutrophil recruitment versus TNFα in the absence of the compound / inhibition of neutrophil recruitment: 2 h
# Experimental: In separate studies, compounds of formula (1) and formula (2) were mixed with 20 μM solutions of TNFα dissolved in phosphate buffered saline (PBS) to a concentration of 2 μM, 20 μM and 200 μM. The ratio of each compound to TNFα was, therefore, 0.1:1 (sample 1), 1:1 (sample 2) and 10:1 (sample 3). […] This process separates protein bound compound and free compound. A control sample containing PBS only was processed in the same way to provide a vehicle control for the study. The concentration of eluted protein was determined using a Nanodrop (ND-1000). The TNFα:compound complexes were diluted in PBS to a concentration for injection of 0.03 μg/kg.
# For the study, typically, each group contained 10 male Balb/c mice (Charles River) apart from an anti-human TNFα antibody positive control, which used a set of 5 mice.
# Compound only mice were also included in the study to assess the effect of compound on neutrophil recruitment.
# All mice were killed by cervical dislocation two hours post-injection of hTNFα (t=2 h) and the peritoneal cavity was lavaged with 3 mL of FACS buffer (500 mL PBS containing 2 g bovine serum albumin, 6 mL HEPES buffer and […]). Lavage fluid was aspirated and neutrophil numbers were assessed by staining cells with anti-Gr1 PE and anti-CD45 FITC by FACS as detailed below.
# 100 μL of lavage fluid from each sample was aliquoted into FACS tubes. A FACS cocktail was made up using anti-GR-1 PE (BD cat #553128 Lot #75542) at 1 in 39 dilution and anti-CD45 FITC (BD cat #553080 Lot #80807) at 1 in 19 dilution in FACS buffer. Fc block (BD Cat #553142 Lot #87810) was prepared 1 in 10 with FACS buffer and 10 μL added to each sample 5 minutes before adding the antibody cocktail. […] Samples were then left for 20 mins on ice. 1 mL of FACS Lyse solution (BD Cat #349202 Lot #29076, diluted 1:10 in dH2O) was added to each tube, mixed and left at room temperature for 5 minutes. 1 mL of FACS Buffer was then added to each tube and centrifuged at 400 g for 5 minutes. The FACS buffer was then carefully poured off and the tip of the tube dabbed on absorbent paper to leave the tube completely dry. Then […] of 1 in 10 Reference Bead solution (Sigma cat # P2477 Lot #116K1612) diluted in FACS buffer was added to each tube.
# Samples were analysed using FACScalibur II and FloJo software.
# TNFα [2] = target: T1, TNFα (Homo sapiens, UniProt P01375); test: Fluorescence probed thermal denaturation assay (Thermofluor) of TNFα; type: binding; conditions: TNFα + 5% DMSO + compound
# T1 sequence (P01375 77-233 limits assumed): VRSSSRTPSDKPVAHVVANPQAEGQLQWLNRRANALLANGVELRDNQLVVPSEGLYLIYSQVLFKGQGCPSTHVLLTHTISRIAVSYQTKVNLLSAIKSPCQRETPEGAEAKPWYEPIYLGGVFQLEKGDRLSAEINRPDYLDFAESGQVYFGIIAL
# Experimental: A fluorescence probed thermal denaturation assay was performed to assess the effect of the compounds on the thermal stability of TNFα as a measure of compound binding. The reaction mix contained 5 μl of 30×SYPRO® Orange dye (Invitrogen) and 5 μl of TNFα (at 1.0 mg/ml), 37.5 μl PBS, pH 7.4 and 2.5 μl of compound (at 2 mM in DMSO). 10 μl of the mix was dispensed in quadruplicate into a 384 PCR optical well plate and was run on a 7900HT Fast Real-Time PCR System ([…]). PCR System heating device was set at 20° C. to 99° C. with a ramp rate of 1.1° C./min; fluorescence changes in the wells were monitored by a Charge-coupled device (CCD). The fluorescence intensity increase was plotted as a function of temperature and the Tm calculated as the midpoint of this denaturation curve (determined as the point of inflection) (Table 1).
# Thermofluor measures the change of melting temperature (Tm) of TNFα due to compound either stabilising or disrupting the protein.
# TNFα [3] = target: T1, TNFα; test: Fluorescence polarization assay, competition with the compound of formula (4) for TNFα; conditions: TNFα 50 nM, compound of formula (4) 10 nM, 5% DMSO; read-out: IC50 (inhibition of binding of the compound of formula (4) to TNFα)
# Experimental: The final concentrations of TNFα and the compound of formula (4) were 50 nM and 10 nM respectively in a total assay volume of 25 μl. Plates were read on an Analyst HT reader. An IC50 was calculated using xlfit (4 parameter logistic model) in Activity Base.
# C87 was preincubated with TNFα for 1 hour prior to assay against the fluorescent compound (probe). Competition with the fluorescent compound either directly (binding at the same site) or indirectly (disrupting TNF) is detected by a reduction in FP.
# TNFα [4] = target: T1, TNFα; test: L929 murine fibrosarcoma cell-killing (neutralisation) assay; type: cell-based, mouse; set-up: host or cells: added to L929 murine fibrosarcoma cells (ECACC, 85011425); conditions: L929 cells; read-out: IC50 (inhibition of cell killing activity of human TNFα)
# Experimental: The L929 neutralisation assays were carried out using the protocol disclosed in Baarsch M J J et al (Immunol Methods 1991; 140: 15-22) and Galloway C J et al J (Immunol Methods 1991; 140: 37-43).
# Briefly, L929 cells (ECACC, 85011425) were cultured in culture medium consisting of RPMI 1640 (Gibco) containing 10% FCS (PAA), 2 mM glutamine (Gibco), 50 U/ml penicillin (Gibco) and 50 μg/ml streptomycin (Gibco). When they were subcultured, the cells were washed three times with 10 mL Dulbecco's phosphate-buffered saline without calcium and magnesium (Gibco) and 3 ml of trypsin-EDTA (Gibco) was then added for 2 minutes to remove the cells from the flask. Culture medium was added to neutralise the trypsin and the cells pipetted up and down to remove any clumps.
# The L929 cells were split 1/2 or 1/3 the day before use and cultured for a further 24 hours. The flasks were then trypsinised as above and 2×10^4 cells in 100 μl were added per well of a 96 well flat-bottomed plate (Becton Dickinson). The plates were cultured for 24 hours before the assay was set up.
# Serial dilutions were made from DMSO stocks of the compounds.
# The assay medium was the same as culture medium but also contained 1 μg/ml actinomycin D (Sigma). The medium was flicked off the plates and the assay samples plus TNFα, standards and controls were added in 100 μl volumes in duplicate. Plates were incubated for a further 16 hours and then 10 μl per well of a 5 mg/ml methylthiazoletetrazolium (MTT; Sigma) solution in culture medium was added for a further 4 hours. The reaction was stopped by the addition of 100 μl of solubilisation buffer containing 20% sodium dodecyl sulphate (SDS, BDH) dissolved in 50% dimethyl formamide (DMF; BDH) and 50% deionised water.
# After overnight incubation at 37° C. to allow the dye to dissolve, the plates were read on a Multiskan EX plate reader (Labsystem) at 570 nm with subtraction at 630 nm. Data were analysed using the Genesis software package.
SMILES,effect of compound alone on neutrophil recruitment [1],neutrophil recruitment versus TNFα in the absence of the compound [1],"inhibition of neutrophil recruitment ([1]; sample 2, ratio compound:TNFα 1:1, i.p.) [%]","inhibition of neutrophil recruitment ([1]; sample 3, ratio compound:TNFα 10:1, i.p.) [%]",Tm difference (=(TNF + cpd) − (TNF + DMSO)) (TNFα [2]),IC50 (TNFα [3]) [nM],IC50 (TNFα [4]) [nM]
"Cc1ccc(C)c(Cn2c(C(O)c3ccncc3)nc3ccccc32)c1 (stereo not drawn) [Compound (1), [1-(2,5-Dimethylbenzyl)-1H-benzimidazol-2-yl](pyridin-4-yl)methanol]",negligible effect,not significantly different,86,85,11.8,167,306
"Cc1ccc(C)c(Cn2c(C(O)c3ccncc3)nc3ccc(-c4cnn(C)c4)cc32)c1 (stereo not drawn) [Compound (2), [1-(2,5-Dimethylbenzyl)-6-(1-methyl-1H-pyrazol-4-yl)-1H-benzimidazol-2-yl](pyridin-4-yl)methanol]",negligible effect,not significantly different,,,17.1,102,125
